Consider 17 molecules from ChEMBL document CHEMBL1201862, “PubChem BioAssay data set” (2004).

What is called IC50 is the concentration that inhibits the measured activity by half. As a reminder, the CC50 is the concentration at which the toxic effect on the cells reaches its halfway point. In general, EC50 refers to the concentration at which the effect is half-maximal. Usually AC50 stands for the concentration giving half of the maximal activity seen.

The target in assay [1] is T1, DNA dC->dU-editing enzyme APOBEC-3G (Homo sapiens, UniProt Q9HC16). It is filed as functional.
The target of assay [2] is T2, DNA dC->dU-editing enzyme APOBEC-3A (Homo sapiens, UniProt P31941). The experiment in a line: Dose Response confirmation of small molecule APOBEC3A DNA Deaminase Inhibitors via a fluorescence-based single-stranded DNA deaminase assay. [Related pubchem assays (depositor defined):AID493011, AID493024]. The class given is functional.
Assay [3] has as its target T2, DNA dC->dU-editing enzyme APOBEC-3A. The experiment in a line: A3A deaminase inhibition for selectivity – biochemical, dose response (AID 504722). It is filed as functional.
Assay [4] concerns the target T1, DNA dC->dU-editing enzyme APOBEC-3G. The experiment in a line: Dose Response confirmation of small molecule APOBEC3G DNA Deaminase Inhibitors via a fluorescence-based single-stranded DNA deaminase assay. [Related pubchem assays (depositor defined):AID493012, AID493028]. It is filed as functional.
The target in the next assay is T3, Hexokinase (Trypanosoma brucei, UniProt Q38C41).
T3 sequence (Q38C41 whole entry): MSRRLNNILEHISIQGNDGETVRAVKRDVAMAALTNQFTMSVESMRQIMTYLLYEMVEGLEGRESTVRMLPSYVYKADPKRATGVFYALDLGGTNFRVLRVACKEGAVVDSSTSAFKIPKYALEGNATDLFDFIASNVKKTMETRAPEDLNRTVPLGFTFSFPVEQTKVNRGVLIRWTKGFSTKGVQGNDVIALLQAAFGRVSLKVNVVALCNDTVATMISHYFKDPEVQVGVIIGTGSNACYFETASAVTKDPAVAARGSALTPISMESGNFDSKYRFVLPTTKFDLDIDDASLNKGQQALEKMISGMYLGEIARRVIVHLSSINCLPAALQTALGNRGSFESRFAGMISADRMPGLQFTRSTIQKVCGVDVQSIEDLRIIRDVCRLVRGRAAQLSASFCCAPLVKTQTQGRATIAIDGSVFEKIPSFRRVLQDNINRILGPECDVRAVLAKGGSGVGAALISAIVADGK
The experiment in a line: Confirmation assay for inhibitors of Trypanosoma brucei hexokinase 1-Analogue-first series. [Related pubchem assays (depositor defined):AID1430, AID1632, AID2516, AID2560, AID2579, AID2600, AID449725, AID492951]. The class given is functional.

The nature of assay [5]: Vero E6 cell cytotoxicity, dose response, cytotoxicity control for non-replicating M. tuberculosis project, secondary assay (AID 492998). The class given is functional, VeroE6. As to conditions: Vero C1008.
Assay [6] can be described thus: cells. The class given is functional.
Assay [7] can be described thus: THP-1 cell cytotoxicity, dose response, cytotoxicity control for non-replicating M. tuberculosis project (AID 489025). It is filed as functional.
The target in assay [8] is T4, Voltage-gated N-type calcium channel alpha-1B subunit/Amyloid beta A4 precursor protein-binding family A member 1 (Homo sapiens, UniProt Q00975+Q02410). The experiment in a line: disruptors of Mint-PDZ/N-type channel peptide interaction – biochemical, HTRF, SAR follow-up (AID 2489). The class given is functional.
In assay [9] the target is T4, Voltage-gated N-type calcium channel alpha-1B subunit/Amyloid beta A4 precursor protein-binding family A member 1. The experiment in a line: disruptors of Mint-PDZ/N-type channel peptide interaction – biochemical, HTRF, set 2, SAR follow-up (AID 434980). The class given is functional.
The target of assay [10] is SWI/SNF-related matrix-associated actin-dependent regulator of chromatin subfamily A member 2 (Homo sapiens, UniProt P51531). The experiment in a line: Luminescence-based cell-based high throughput dose response assay to identify activators of the function of SWI/SNF related, matrix associated, actin dependent regulator of chromatin, subfamily a, member 2 (SMARCA2, BRM). The class given is functional.

The nature of assay [11]: Counterscreen for activators of the function of SWI/SNF related, matrix associated, actin dependent regulator of chromatin, subfamily a, member 2 (SMARCA2, BRM): Luminescence-based cell-based high throughput dose response assay to identify non-selective compounds using the VP16 reporter assay. It is filed as functional. For orientation: A counterscreen serves to expose hits that act by an unwanted route or on another target.

For assay [12], the target named is T5, Acyl-homoserine lactone acylase PvdQ (Pseudomonas aeruginosa (strain LESB58), UniProt Q9I194).
T5 sequence (Q9I194 whole entry): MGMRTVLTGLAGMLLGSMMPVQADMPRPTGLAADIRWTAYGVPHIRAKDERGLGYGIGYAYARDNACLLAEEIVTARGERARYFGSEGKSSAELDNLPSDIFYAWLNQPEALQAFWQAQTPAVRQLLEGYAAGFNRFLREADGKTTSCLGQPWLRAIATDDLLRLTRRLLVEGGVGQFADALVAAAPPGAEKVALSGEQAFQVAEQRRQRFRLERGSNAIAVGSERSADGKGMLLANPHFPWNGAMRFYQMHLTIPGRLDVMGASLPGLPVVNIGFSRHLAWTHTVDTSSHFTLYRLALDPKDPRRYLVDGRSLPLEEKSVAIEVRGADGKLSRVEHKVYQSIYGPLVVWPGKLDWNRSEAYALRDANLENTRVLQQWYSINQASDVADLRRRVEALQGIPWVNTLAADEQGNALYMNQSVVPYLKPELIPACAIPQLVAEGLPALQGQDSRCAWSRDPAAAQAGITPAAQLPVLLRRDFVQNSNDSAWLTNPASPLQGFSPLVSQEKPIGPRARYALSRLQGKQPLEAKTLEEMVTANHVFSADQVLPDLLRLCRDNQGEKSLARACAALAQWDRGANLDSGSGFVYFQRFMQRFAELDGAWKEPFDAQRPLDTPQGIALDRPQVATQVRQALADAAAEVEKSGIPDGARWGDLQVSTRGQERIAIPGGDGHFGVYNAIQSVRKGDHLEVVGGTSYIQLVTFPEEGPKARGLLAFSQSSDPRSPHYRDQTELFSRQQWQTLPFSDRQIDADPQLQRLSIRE
The experiment in a line: PvdQ acylase enzyme activity blockers – biochemical, fluorescence, plate reader and imaging, cherry-picks, dose response (AID 493231).

Assay [13] deals with Neurotensin receptor type 1 (Homo sapiens, UniProt P30989). The class given is functional.
The nature of assay [14]: Luminescence Cell-Based Dose Response HTS to Identify Inhibitors of 5'UTR Stem-Loop Driven Prion Protein mRNA Translation in H4 Neuroglioblastoma Cells. [Related pubchem assays: 1827 (Project Summary), 1813 (Primary HTS)]. The class given is functional.
Assay [15] in a line: cells. It is filed as functional, cell-based.
Assay [16] can be described thus: luciferase reporter signal suppression in cells – H4 neuroglioma cells, luminescence, dose response (AID 1990). The class given is functional, cell-based. On the technique in general: A reporter such as luciferase makes a cellular process visible.
The nature of assay [17]: alpha-synuclein stem-loop luciferase translation blockers – H4 neuroglioma cells, luminescence, confirmation (AID 1988). The class given is functional, cell-based.
Assay [18] is described as follows: cells. The class given is functional, cell-based. The source holds these as a separate data set.
The target in the next assay is Beta-galactosidase (Escherichia coli, UniProt Q8VNN2). The experiment in a line: detection-enzyme interference by beta-gal modulators – biochemical, E. coli enzyme, set 3, artefact control for CCR6 antagonist project, dose response (AID 504712). It is filed as functional.
Assay [19] addresses T6, C-C chemokine receptor type 6 (Homo sapiens, UniProt P51684).
T6 sequence (P51684 whole entry): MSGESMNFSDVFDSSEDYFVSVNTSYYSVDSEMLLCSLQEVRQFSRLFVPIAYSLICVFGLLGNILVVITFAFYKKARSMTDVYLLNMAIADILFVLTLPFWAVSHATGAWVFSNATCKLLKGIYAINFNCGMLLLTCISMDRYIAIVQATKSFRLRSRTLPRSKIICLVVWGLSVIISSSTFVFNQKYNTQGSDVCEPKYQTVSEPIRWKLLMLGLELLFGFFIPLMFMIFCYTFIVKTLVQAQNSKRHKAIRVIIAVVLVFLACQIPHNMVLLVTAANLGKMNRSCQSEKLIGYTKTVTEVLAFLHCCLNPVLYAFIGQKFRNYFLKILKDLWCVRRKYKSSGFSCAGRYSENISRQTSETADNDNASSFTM
The experiment in a line: antagonism of CCR6 beta-arrestin recruitment – cell-based, luminescent beta-arrestin readout, dose response (AID 504728). The class given is functional. A general note: Arrestin recruitment assays detect the binding of arrestin to an activated receptor.

Assay [20] addresses Glucose-6-phosphate 1-dehydrogenase (Homo sapiens, UniProt P11413). The experiment in a line: inhibition of Homo sapiens G6PD, dose series – biochemical, fluorescence, selectivity assay for P. falciparum G6PD inhibitor project, dose response (AID 504792). The class given is functional.
The target of assay [21] is T4, Voltage-gated N-type calcium channel alpha-1B subunit/Amyloid beta A4 precursor protein-binding family A member 1. It is filed as protein assay.
The target is the same in assay [22]. It is filed as protein assay. This is another data set of the same source.

Each structure is given as a SMILES string. Active and inactive are the calls of the source.

T2 sequence (P31941 whole entry): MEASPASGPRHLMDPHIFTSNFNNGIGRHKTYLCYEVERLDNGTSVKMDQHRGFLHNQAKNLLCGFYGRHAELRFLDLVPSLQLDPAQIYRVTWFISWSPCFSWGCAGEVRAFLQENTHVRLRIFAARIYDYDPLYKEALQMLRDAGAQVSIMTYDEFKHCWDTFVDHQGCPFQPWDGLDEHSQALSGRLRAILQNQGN
T4 sequence (Q00975 whole entry): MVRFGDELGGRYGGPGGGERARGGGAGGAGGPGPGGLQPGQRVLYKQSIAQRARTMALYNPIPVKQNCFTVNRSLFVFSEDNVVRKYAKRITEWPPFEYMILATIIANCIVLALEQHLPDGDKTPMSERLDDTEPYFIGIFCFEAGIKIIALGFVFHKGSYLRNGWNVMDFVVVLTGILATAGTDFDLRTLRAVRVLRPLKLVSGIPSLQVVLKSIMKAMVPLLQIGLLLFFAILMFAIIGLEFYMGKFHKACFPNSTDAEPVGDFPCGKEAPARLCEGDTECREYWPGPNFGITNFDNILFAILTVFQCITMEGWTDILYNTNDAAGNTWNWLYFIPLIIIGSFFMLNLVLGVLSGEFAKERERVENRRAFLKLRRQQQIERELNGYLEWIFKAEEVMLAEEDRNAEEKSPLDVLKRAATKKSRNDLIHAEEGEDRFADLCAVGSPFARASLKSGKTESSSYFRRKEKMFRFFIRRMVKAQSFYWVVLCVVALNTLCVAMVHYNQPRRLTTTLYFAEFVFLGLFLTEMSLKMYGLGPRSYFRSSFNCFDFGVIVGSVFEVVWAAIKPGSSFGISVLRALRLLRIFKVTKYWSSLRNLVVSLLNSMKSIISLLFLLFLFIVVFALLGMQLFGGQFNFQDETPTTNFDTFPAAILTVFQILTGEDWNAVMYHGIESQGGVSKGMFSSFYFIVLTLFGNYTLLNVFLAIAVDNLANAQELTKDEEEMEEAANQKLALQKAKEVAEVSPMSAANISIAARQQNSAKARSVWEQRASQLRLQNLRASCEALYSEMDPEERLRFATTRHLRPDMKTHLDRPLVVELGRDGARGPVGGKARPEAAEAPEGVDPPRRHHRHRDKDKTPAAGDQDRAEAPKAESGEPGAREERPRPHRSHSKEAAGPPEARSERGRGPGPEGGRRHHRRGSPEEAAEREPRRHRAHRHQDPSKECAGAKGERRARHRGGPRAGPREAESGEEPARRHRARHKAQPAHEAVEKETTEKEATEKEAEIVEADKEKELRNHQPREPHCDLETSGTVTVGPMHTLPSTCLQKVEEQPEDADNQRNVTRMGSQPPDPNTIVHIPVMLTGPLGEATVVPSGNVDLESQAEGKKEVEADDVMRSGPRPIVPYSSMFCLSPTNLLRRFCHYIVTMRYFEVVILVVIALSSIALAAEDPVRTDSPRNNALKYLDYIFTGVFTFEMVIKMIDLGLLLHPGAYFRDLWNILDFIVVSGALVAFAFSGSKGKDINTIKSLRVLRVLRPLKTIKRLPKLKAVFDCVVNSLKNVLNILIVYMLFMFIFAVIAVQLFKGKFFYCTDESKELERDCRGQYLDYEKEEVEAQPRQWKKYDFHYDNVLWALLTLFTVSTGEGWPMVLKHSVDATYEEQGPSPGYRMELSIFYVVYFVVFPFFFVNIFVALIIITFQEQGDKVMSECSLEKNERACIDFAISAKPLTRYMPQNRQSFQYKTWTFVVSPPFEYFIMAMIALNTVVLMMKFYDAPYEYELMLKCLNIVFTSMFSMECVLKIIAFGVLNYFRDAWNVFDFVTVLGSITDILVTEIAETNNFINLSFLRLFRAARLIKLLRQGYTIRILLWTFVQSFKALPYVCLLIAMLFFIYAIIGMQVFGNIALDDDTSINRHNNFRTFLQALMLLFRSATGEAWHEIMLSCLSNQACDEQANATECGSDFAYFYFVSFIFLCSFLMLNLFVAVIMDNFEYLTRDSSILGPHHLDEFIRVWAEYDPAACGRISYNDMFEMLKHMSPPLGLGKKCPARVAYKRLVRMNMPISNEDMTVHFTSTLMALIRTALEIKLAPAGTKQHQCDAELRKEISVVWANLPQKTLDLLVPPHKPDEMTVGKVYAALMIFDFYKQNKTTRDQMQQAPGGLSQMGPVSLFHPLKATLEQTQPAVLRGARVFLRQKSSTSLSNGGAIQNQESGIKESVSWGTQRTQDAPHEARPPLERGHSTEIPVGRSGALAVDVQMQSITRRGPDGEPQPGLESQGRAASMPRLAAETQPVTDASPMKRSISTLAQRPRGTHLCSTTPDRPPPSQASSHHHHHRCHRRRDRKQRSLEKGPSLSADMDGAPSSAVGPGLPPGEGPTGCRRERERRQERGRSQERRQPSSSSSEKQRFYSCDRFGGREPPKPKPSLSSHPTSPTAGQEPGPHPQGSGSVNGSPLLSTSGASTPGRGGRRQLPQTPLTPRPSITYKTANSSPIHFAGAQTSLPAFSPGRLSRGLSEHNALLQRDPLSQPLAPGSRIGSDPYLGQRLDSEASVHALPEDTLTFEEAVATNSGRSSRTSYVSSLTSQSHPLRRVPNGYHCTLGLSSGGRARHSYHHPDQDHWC
T4 sequence (Q02410 whole entry): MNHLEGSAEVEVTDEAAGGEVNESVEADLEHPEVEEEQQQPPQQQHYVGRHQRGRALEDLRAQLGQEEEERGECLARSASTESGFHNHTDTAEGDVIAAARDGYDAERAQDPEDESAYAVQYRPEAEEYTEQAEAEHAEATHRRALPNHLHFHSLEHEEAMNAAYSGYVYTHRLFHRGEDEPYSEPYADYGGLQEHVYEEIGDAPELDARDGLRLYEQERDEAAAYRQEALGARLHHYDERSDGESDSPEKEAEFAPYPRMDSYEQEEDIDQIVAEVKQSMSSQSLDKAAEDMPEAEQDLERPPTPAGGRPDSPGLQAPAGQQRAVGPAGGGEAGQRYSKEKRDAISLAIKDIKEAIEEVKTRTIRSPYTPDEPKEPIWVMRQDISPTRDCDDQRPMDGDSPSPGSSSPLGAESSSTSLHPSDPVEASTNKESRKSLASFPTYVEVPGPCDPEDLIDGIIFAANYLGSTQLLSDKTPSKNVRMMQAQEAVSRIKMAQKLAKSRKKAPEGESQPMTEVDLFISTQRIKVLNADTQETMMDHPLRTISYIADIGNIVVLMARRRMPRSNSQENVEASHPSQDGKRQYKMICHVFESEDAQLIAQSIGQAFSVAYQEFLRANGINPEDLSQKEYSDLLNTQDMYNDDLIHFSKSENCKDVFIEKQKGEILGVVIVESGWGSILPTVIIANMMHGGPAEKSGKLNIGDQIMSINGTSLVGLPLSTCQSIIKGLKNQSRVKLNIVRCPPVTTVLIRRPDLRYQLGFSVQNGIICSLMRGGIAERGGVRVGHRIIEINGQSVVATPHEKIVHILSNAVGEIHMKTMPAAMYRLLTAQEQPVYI
T1 sequence (Q9HC16 whole entry): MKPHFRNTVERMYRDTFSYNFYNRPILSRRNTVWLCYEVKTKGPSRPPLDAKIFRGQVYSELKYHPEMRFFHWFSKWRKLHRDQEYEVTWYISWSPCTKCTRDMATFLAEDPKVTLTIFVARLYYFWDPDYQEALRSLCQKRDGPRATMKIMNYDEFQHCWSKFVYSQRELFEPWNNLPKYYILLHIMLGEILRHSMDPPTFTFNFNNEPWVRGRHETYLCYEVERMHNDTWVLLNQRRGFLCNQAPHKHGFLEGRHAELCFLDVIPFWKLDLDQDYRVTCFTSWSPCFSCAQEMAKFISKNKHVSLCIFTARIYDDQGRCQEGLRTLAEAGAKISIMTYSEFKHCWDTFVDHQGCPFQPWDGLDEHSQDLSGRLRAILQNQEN
Sequence of Neurotensin receptor type 1 (P30989 whole entry): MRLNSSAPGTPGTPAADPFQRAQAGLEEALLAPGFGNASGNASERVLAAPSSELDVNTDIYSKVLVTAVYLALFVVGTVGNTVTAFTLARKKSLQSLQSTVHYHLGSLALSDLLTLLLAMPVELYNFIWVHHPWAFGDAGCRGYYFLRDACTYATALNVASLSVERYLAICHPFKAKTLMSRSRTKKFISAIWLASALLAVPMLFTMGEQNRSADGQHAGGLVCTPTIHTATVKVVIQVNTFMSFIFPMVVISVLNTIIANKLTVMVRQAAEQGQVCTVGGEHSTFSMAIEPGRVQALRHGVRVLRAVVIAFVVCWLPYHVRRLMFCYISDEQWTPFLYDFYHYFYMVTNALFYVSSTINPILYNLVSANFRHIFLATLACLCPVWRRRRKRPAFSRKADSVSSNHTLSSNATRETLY
Sequence of Glucose-6-phosphate 1-dehydrogenase (P11413 whole entry): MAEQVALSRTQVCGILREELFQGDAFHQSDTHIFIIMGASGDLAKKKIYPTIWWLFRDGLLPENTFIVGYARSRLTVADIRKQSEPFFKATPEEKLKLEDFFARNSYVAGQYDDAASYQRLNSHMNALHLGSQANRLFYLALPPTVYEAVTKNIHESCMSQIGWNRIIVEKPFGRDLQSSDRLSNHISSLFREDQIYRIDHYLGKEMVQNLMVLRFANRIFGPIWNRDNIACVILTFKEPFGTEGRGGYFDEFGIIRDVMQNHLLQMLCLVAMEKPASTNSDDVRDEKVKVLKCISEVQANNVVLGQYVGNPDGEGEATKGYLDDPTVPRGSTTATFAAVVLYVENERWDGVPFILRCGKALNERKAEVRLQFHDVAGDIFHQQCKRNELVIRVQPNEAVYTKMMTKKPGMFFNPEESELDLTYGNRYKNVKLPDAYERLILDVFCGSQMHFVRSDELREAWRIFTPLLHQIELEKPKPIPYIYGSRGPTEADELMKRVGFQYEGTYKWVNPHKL

As to `Cc1cc(C)cc(N2CC(c3nc4ccccc4n3C)CC2=O)c1` (stereo not given), the IC50 in assay [1] was 16.1 µM (active); in [2], 9.16 µM (active).

On to `Cc1ccsc1/C=N/n1c(S)nnc1-c1ccccn1`, for which the IC50 in [3] is > 100 µM (inactive); in [4] it was 4.89 µM (active).

`COc1ccc2c(=O)n(-c3ccccc3)sc2c1`: on Hexokinase, the IC50 is 3 µM (active).

As to `CC(C)CCCN1C(=O)NC(=O)/C(=C\c2ccc[nH]2)C1=O`, the CC50 is > 20 µM (active) in [5] and > 40 µM (active) in [7]. Moreover, the IC50 in the assay “cells [6]” is 1.22 µM (active).

Turning to `CCCCCCCC(=O)Nc1cc(Cl)ccc1C(=O)O`, the IC50 on Hexokinase was > 25 µM (inactive).

Consider `Cc1cccc(N2C(=O)C3C(C2=O)C2(C)C=CC3(C)O2)c1` (stereo not given), for which the figures for the IC50 in assay [8] and in [9] were 27.6 µM (active) and 8.93 µM (active), respectively.

On to `CCS(=O)(=O)c1c([N+](=O)[O-])ncn1C`, for which the CC50 in assay [5] is > 20 µM (active); in assay [7] it was > 40 µM (active). Moreover, the EC50 in assay [10] and in assay [11] was > 91.1 µM (inactive) throughout. Moreover, in the assay “cells [6]”, the IC50 was 16.2 µM (active).

For `N#CC(Sc1ccccn1)c1ccc(Cl)cc1` (stereo not given), in assay [12], the half-maximal activity concentration (AC50) was 7.09 µM (active).

Regarding `O=C(Nc1cc(Cl)ccc1C(=O)O)c1ccc(C2CC2)cc1`, at Hexokinase, the IC50 was 5.77 µM (active).

As for `O=C(/C=C/c1cccnc1)c1ccc(F)c(F)c1`, the EC50 in assay [13] was 11.4 µM (active).

Take `CC(=O)Nc1nc2ccccc2n1CCOc1ccccc1Cl`: the CC50 in assay [5] was 17.5 µM (active); in assay [7], > 40 µM (active). In the assay “cells [6]”, the IC50 is 2.72 µM (active). The EC50 was > 120 µM (not active) in assay [14]; > 350 µM (not active) in “cells [15]”; 16.7 µM (active) in assay [16]; > 120 µM (not active) in assay [17]; 56.5 µM (active) in the assay “cells [18]”.

Consider `CC1(C)C2CC[C@]3(C)C(CC=C4[C@@H]5C[C@@](C)(CO)[C@@H]6C[C@@]5(CC[C@]43C)C(=O)O6)[C@@]2(C)CC[C@@H]1O` (stereo not given in full), for which the IC50 (at Beta-galactosidase; in [19]) was > 66.6 µM (inactive) in each case.

For `CCOc1ccc(CN2C(=O)c3ccccc3C2=O)cc1C(=O)NC1CC(C)(C)NC(C)(C)C1`, the 50% inhibitory concentration (IC50) in [1] is 3.18 µM (active); in [2], 2.87 µM (active).

For `O=C(NCCCN1CCOCC1)c1sc2cc([N+](=O)[O-])ccc2c1Cl`, the values for the IC50 in assay [20], in assay [3] and in assay [4] were > 80 µM (inactive), > 100 µM (inactive) and 6.34 µM (active), respectively.

As to `CCN1CCN(c2ccc(NC(=O)c3ccc4c(c3)OCCO4)cc2C)CC1`, the IC50 was 4.12 µM (active) in assay [1] and 4.49 µM (active) in assay [2].

Consider `CC(=O)Oc1ccc(N2C(=O)C3C4C=CC(O4)C3C2=O)cc1` (stereo not given), for which the IC50 is > 56.8 µM (inactive) in assay [8] and 18.8 µM (active) in assay [9].

For the molecule `CC(C)NC(=O)COC(=O)/C=C/c1ccco1`, the IC50 in assay [21] was > 50 µM (inactive); in assay [22], 9.71 µM (active).
